Experimental data published in BindingDB's records for PubMed 39128361 (Xi'an Jiaotong University).

Assay: Inhibition of pERK (unknown origin)

Work on `CC(=O)N1CCN(c2ccc(Nc3nccc(-c4sc(C(C)C)nc4-c4cccc(NS(=O)(=O)c5ccccc5)c4)n3)cn2)CC1` yielded an IC50 of 7 nM.
